Measured values published in US8686002B2, “Heterocyclic compounds and their use as binding partners for 5-HT5 receptors” (AbbVie Deutschland GmbH & Co. KG, priority 2005, dated 2014).
pKi: −log10 of the molar value. Structures can show the parent of a compound that is named as a salt.

Molecular target: 5-HT5A (Homo sapiens, UniProt P47898)
Assay: Affinity of selected compounds for 5-HT5A (Ki)
Type: binding
Description: In both assays, different concentrations of the test substances are used and the Ki and IC50 values are determined.

Chain of 5-HT5A (P47898 whole entry): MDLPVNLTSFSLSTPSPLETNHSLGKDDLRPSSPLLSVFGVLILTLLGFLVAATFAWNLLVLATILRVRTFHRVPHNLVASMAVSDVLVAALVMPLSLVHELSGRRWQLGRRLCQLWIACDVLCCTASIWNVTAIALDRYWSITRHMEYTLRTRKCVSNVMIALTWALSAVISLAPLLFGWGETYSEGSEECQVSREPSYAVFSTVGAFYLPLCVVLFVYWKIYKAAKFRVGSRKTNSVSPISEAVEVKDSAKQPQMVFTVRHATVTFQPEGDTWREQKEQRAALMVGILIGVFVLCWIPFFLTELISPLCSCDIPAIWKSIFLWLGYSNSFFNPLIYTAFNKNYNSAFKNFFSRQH

Row | pKi | Molecule
1 | > 6.52 | COc1cccc(F)c1Cc1cc2cc(N3CCOCC3)ccc2nc1N [Example 45, 3-(2-Methoxy-6-fluorobenzyl)-6-morpholin-4-ylquinolin-2-amine]
2 | > 5.00 | COc1ccc(-c2ccc3c(c2)N=C(N)N(Cc2c(OC)cccc2OC)C3)cc1 [Example 83, 3-(2,6-Dimethoxybenzyl)-7-(4-methoxyphenyl)-3,4-dihydroquinazolin-2-aminium acetate]
3 | > 6.52 | COc1cccc(OC)c1CN1Cc2ccc(Cl)cc2N=C1N [Example 90, 7-Chloro-3-(2,6-dimethoxybenzyl)-3,4-dihydroquinazolin-2-amine]
4 | > 6.52 | CCOc1ccccc1Cc1cc2cc(N3CCOCC3)ccc2nc1N [Example 62, 3-(2-Ethoxygenzyl)-6-morpholin-4-ylquinolin-2-amine monofumarate]
5 | > 6.52 | COCCOc1ccc2nc(N)c(Cc3ccccc3OC)cc2c1 [Example 43, 3-(2-Methoxybenzyl)-6-(2-methoxyethoxy)quinolin-2-amine]
6 | > 6.52 | COc1cccc(OC)c1Cc1cc2cc(Cl)ccc2nc1N [Example 9, 6-Chloro-3-(2,6-dimethoxybenzyl)quinolin-2-amine]
7 | > 5.00 | COc1ccccc1CN1Cc2ccccc2N=C1NCc1cccc2ccccc12 [Example 98, 3-(2-Methoxybenzyl)-N-(1-naphthylmethyl)-3,4-dihydroquinazolin-2-amine hydrochloride]
8 | > 6.52 | COc1cccc(OC)c1CN1Cc2ccc(-c3ccccc3)cc2N=C1N [Example 82, 3-(2,6-Dimethoxybenzyl)-7-phenyl-3,4-dihyroquinazoli-2-aminium acetate]
9 | > 6.52 | COc1cccc(F)c1Cc1cc2cc(N3CCN(C)CC3)ccc2nc1N [Example 49, 3-(2-Fluoro-6-methoxybenzyl)-6-(4-methylpiperazin-1-yl)quinolin-2-aminomonofumarate]
10 | > 6.52 | COc1cc(Cl)ccc1CN1Cc2ccccc2N=C1N [Example 67, 3-(4-Chloro-2-methoxybenzyl)-3,4-dihydroquinazolin-2-amine hydrochloride]
11 | > 6.52 | COc1cccc(F)c1Cc1cc2ncccc2nc1N [Example 47, 3-(2-Fluoro-6-methoxybenzyl)-1,5-naphthyridin-2-amine]
12 | > 6.52 | COc1ccccc1CN1Cc2ccc([N+](=O)[O-])cc2N=C1N [Example 91, 3-(2-Methoxybenzyl)-7-nitro-3,4-dihydroquinazolin-2-amine]
13 | > 6.52 | COc1cccc(OC)c1CN1Cc2ccccc2N=C1N [Example 63, 3-(2,6-Dimethoxybenzyl)-3,4-dihydroquinazolin-2-amine acetate]
14 | > 6.52 | COc1ccc2nc(N)c(Cc3ccccc3OC)cc2c1 [Example 7, 6-Methoxy-3-(2-methoxybenzyl)quinolin-2-amine]
15 | > 6.52 | COc1ccccc1Cc1cc2cc(N3CCN(C)CC3)ccc2nc1N [Example 48, 3-(2-Methoxybenzyl)-6-(4-methylpiperazin-1-yl)quinolin-2-amine bisfumarate]
16 | > 6.52 | COc1ccccc1Cc1cc2ccc(Cl)cc2nc1N [Example 15, 7-Chloro-3-(2-methoxybenzyl)quinolin-2-amine]
17 | > 6.52 | COc1ccc2c(c1)CN(Cc1ccccc1OC)C(N)=N2 [Example 101, 6-Methoxy-3-(2-methoxybenzyl)-3,4-dihydroquinazolin-2-amine]
18 | > 6.52 | COc1ccccc1Cc1cc2cc(N3CCOCC3)ccc2nc1N [Example 44, 3-(2-Methoxybenzyl)-6-morpholin-4-ylquinolin-2-amine]
19 | > 6.52 | COc1cccc(OC)c1CN1Cc2cc(Cl)ccc2N=C1N [Example 89, 6-Chloro-3-(2,6-dimethoxybenzyl)-3,4-dihydroquinazolin-2-amine]
20 | > 6.52 | COc1cccc(OC)c1CN1Cc2ccc(-c3cccs3)cc2N=C1N [Example 86, 3-(2,6-Dimethoxybenzyl)-7-(2-thienyl)-3,4-dihydroquinazolin-2-aminium acetate]
21 | > 6.52 | COc1cccc(OC)c1Cc1cc2ccncc2nc1N [Example 37, 3-(2,6-Dimethoxybenzyl)-1,7-naphthyridin-2-amine]

More lines, now with the values behind:

Row | Molecule | pKi
22 | COc1ccccc1Cc1cc2cc(N3CCOCC3)c(F)cc2nc1N [Example 50, 7-Fluoro-3-(2-methoxybenzyl)-6-morpholin-4-ylquinolin-2-amine] | > 6.52
23 | COc1cccc(O)c1Cc1cc2ccccc2nc1N [Example 2, 2-[(2-Aminoquinolin-3-yl)methyl]-3-methoxyphenol] | > 6.52
24 | COc1cccc(CN2Cc3ccccc3N=C2N)c1OC [Example 71, 3-(2,3-Dimethoxybenzyl)-3,4-dihydroquinazolin-2-amine hydrochloride] | > 5.00
25 | COc1cccc(Cl)c1Cc1cc2ccc(Cl)cc2nc1N [Example 27, 7-Chloro-3-(2-chloro-6-methoxybenzyl)quinolin-2-amine] | > 6.52
26 | COc1ccccc1CN1Cc2ccccc2N=C1NCCc1ccccc1 [Example 97, [3-(2-Methoxybenzyl)-3,4-dihydroquinazolin-2-yl]phenethylamine hydrochloride] | > 5.00
27 | COc1ccc2cc(Cc3ccccc3OC)c(N)nc2c1 [Example 6, 7-Methoxy-3-(2-methoxybenzyl)quinolin-2-amine] | > 6.52
28 | COc1cccc(F)c1Cc1cc2ccc(Cl)cc2nc1N [Example 26, 7-Chloro-3-(2-fluoro-6-methoxybenzyl)quinolin-2-amine] | > 6.52
29 | COc1cccc(OC)c1CN1Cc2ccc(-c3cccnc3)cc2N=C1N [Example 85, 3-(2,6-Dimethoxybenzyl)-7-pyridin-3-yl-3,4-dihydroquinazolin-2-aminium acetate] | > 6.52
30 | COc1ccccc1Cc1cc2cc(OC)c(OC)cc2nc1N [Example 16, 6,7-Dimethoxy-3-(2-methoxybenzyl)quinolin-2-amine] | > 6.52
31 | COc1ccccc1CN1Cc2ccccc2N=C1NCc1cccs1 [Example 100, 3-(2-Methoxybenzyl)-N-(2-thienylmethyl)-3,4-dihydroquinazolin-2-amine hydrochloride] | > 5.00
32 | COc1cccc(OC)c1Cc1cc2cccnc2nc1N [Example 21, 3-(2,6-Dimethoxybenzyl)-1,8-naphthyridin-2-amine] | > 5.00
33 | Nc1nc2ccccc2cc1Cc1ccccc1OC(F)(F)F [Example 53, 3-[2-(Trifluoromethoxy)benzyl]quinolin-2-amine] | > 6.52
34 | COc1cccc(OC)c1Cc1cc2cccc(OC)c2nc1N [Example 52, 3-(2,6-Dimethoxybenzyl)-8-methoxyquinolin-2-amine hydrochloride] | > 6.52
35 | COc1cccc(OC)c1CN1Cc2ccc(Br)cc2N=C1N [Example 81, 7-Bromo-3-(2,6-dimethoxybenzyl)-3,4-dihydroquinazolin-2-amine] | > 6.52
36 | COc1ccccc1CN1Cc2ccc(Cl)cc2N=C1N [Example 65, 7-Chloro-3-(2-methoxybenzyl)-3,4-dihydroquinazolin-2-amine] | > 6.52
37 | COc1cccc(Cl)c1Cc1cc2cc3c(cc2nc1N)OCO3 [Example 40, 7-(2-Chloro-6-methoxybenzyl)[1.3]dioxolo[4,5-g]quinolin-76-amine] | > 6.52
38 | COc1ccccc1Cc1cc2cccnc2nc1N [Example 34, 3-(2-Methoxybenzyl)-1,8-naphthyridin-2-amine] | > 5.00

Row | Molecule | pKi
39 | COc1cccc(OC)c1CN1Cc2ccccc2N=C1NCc1ccccc1 [Example 95, N-Benzyl-3-(2,6-dimethoxybenzyl)-3,4-dihydroquinazolin-2-amine hydrochloride] | > 5.00
40 | COc1cccc(F)c1Cc1cc2ccc(F)cc2nc1N [Example 42, 7-Fluoro-3-(2-fluoro-6-methoxybenzyl)quinolin-2-amine] | > 6.52
41 | CCOc1ccc2nc(N)c(Cc3c(OC)cccc3OC)cc2c1 [Example 32, 6-Ethoxy-3-(2,6-dimethoxybenzyl)quinolin-2-amine] | > 6.52
42 | COc1cccc(OC)c1Cc1cc2cc3c(cc2nc1N)OCO3 [Example 12] | > 6.52
43 | COc1ccccc1Cc1cc2cc(F)c(F)cc2nc1N [Example 41, 6,7-Difluoro-3-(2-methoxybenzyl)quinolin-2-amine] | > 6.52
44 | COc1cccc(OC(C)C)c1Cc1cc2ccccc2nc1N [Example 5, 3-(2-Isopropoxy-6-methoxybenzyl)quinolin-2-amine] | > 6.52
45 | 3-(2-Methoxybenzyl)-N-(1-naphthylmethyl)-3,4-dihydroquinazolin-2-amine hydrochloride [Example 99] | > 5.00
46 | COc1ccccc1CN1Cc2cc(Cl)ccc2N=C1N [Example 102, 6-Chloro-3-(2-methoxybenzyl)-3,4-dihydroquinazolin-2-amine] | > 6.52
47 | CCOc1cccc(F)c1Cc1cc2ccccc2nc1N [Example 59, 3-(2-Ethoxy-6-fluorobenzyl)quinolin-2-amine hydrochloride] | > 6.52
48 | COc1ccccc1Cc1cc2cc3c(cc2nc1N)OCO3 [Example 14, 7-(2-Methoxybenzyl)[1.3]dioxolo[4.5-g]quinolin-6-amine] | > 6.52
49 | COc1cccc(OC)c1CN1Cc2ccc(C)cc2N=C1N [Example 84, 3-(2,6-Dimethoxybenzyl)-7-methyl-3,4-dihydroquinazolin-2-aminium acetate] | > 6.52
50 | COc1cccc(F)c1Cc1cc2cnccc2nc1N [Example 35, 3-(2-Fluoro-6-methoxybenzyl)-1,6-naphthyridin-2-amine] | > 6.52
51 | COc1cccc(Cl)c1Cc1cc2ncccc2nc1N [Example 58, 3-(2-Chloro-6-methoxybenzyl)-1,5-naphthyridin-2-amine] | > 6.52
52 | COc1ccccc1CN1Cc2ccccc2N=C1NC1CCN(Cc2ccccc2)CC1 [Example 96, N-(1-Benzylpiperidin-4-yl)-3-(2-methoxybenzyl)-3,4-dihydroquinazolin-2-amine fumarate] | > 5.00
53 | COc1ccccc1Cc1cc2ccncc2nc1N [Example 36, 3-(2-Methoxybenzyl)-1,7-naphthyridin-2-amine] | > 6.52
54 | CCOc1cccc(OC)c1Cc1cc2ccccc2nc1N [Example 4, 3-(2-Ethoxy-6-methoxybenzyl)quinolin-2-amine] | > 6.52
55 | Nc1nc2ccccc2cc1Cc1ccccc1OC(F)F [Example 61, 3-[2-(difluoromethoxy)benzyl]quinolin-2-amine] | > 6.52
